Where two headings read alike, the source gives them in different places.
Test: Ocular tissue distribution and pharmacokinetics, 7.5 and 15 mg/kg oral, pigmented Dutch Belted rabbits (Example 7)
Format: in vivo
Procedure: For Group 1, two animals/time point were sacrificed via an overdose of sodium pentobarbital at approximately 1, 6, 12, 24, 96, 168, and 240 hours postdose. Blood (approximately 2 mL) was collected from all animals at sacrifice into tubes containing K2EDTA via exsanguination (cardiac puncture).
For Groups 2 through 4, blood (approximately 2 mL) was collected via a jugular vein using a syringe and needle and was transferred into tubes containing K2EDTA at approximately 12 hours after the a.m. dose on Day 15 from the two animals designated for sacrifice at approximately 240 hours after the a.m. dose on Day 15.
For Groups 2 through 4, two animals/group/time point were sacrificed via an overdose of sodium pentobarbital prior to dosing on Day 15 and at approximately 1, 6, 24, 96, 168, and 240 hours after the a.m. dose on Day 15. Blood (approximately 2 mL) was collected from all animals at sacrifice into tubes containing K2EDTA via exsanguination (cardiac puncture).
Blood was maintained on wet ice, in chilled cryoracks, or at approximately 5° C. prior to centrifugation to obtain plasma. Centrifugation began within 1 hour of collection (Deviation). Plasma was placed into 96-well tubes with barcode labels. Plasma was maintained on dry ice prior to storage at approximately −70° C.
At the time of sacrifice, both eyes were enucleated, and the following tissues were collected. Each eye was flash-frozen in liquid nitrogen for 15 to 20 seconds. The enucleated eye was placed on dry ice or stored at approximately −70° C. for at least 2 hours. Within approximately 3 days, the frozen matrices were collected as right and left eyes for each matrix into the specific tube type listed.
At the time of frozen collection, the ocular tissues were rinsed with saline and blotted dry (as appropriate), weighed, and placed on dry ice. All ocular tissues were collected as single samples.

[1] = Dutch Belted, rabbit, Retina (OU), male DB rabbits, Group 1, Day 1, 7.5 mg/kg single oral dose
[2] = Dutch Belted, rabbit, plasma, male DB rabbits, Group 1, Day 1, 7.5 mg/kg single oral dose
[3] = ICB (OU), male DB rabbits, Group 1, Day 1, […] single oral dose
[4] = ICB (OU), male DB rabbits, Group 2, Day 15, […] BID oral (15 mg/kg/day)
[5] = ICB (OU), male DB rabbits, Group 3, Day 15, 15 mg/kg/dose BID oral (30 mg/kg/day)
[6] = Retina (OU), male DB rabbits, Group 1, Day 1, […] single oral dose
[7] = Retina (OU), male DB rabbits, Group 2, Day 15, […] BID oral (15 mg/kg/day)
[8] = Retina (OU), male DB rabbits, Group 3, Day 15, 15 mg/kg/dose BID oral (30 mg/kg/day)
[9] = male, Dutch Belted, rabbit, choroid-retinal pigment epithelium (choroid-RPE), po, 15 mg/kg, Choroid-RPE (OU), male DB rabbits, Group 3, Day 15, 15 mg/kg/dose BID oral (30 mg/kg/day)
[10] = male, Dutch Belted, rabbit, plasma, po, 15 mg/kg, plasma, male DB rabbits, Group 3, Day 15, 15 mg/kg/dose BID oral (30 mg/kg/day)
[11] = male, Dutch Belted, rabbit, plasma, po, […], plasma, male DB rabbits, Group 1, Day 1, […] single oral dose
[12] = male, Dutch Belted, rabbit, plasma, po, […], plasma, male DB rabbits, Group 2, Day 15, […] BID oral (15 mg/kg/day)
[13] = plasma, male DB rabbits, Group 1, Day 1, […] single oral dose
[14] = plasma, male DB rabbits, Group 2, Day 15, […] BID oral (15 mg/kg/day)
[15] = plasma, male DB rabbits, Group 3, Day 15, 15 mg/kg/dose BID oral (30 mg/kg/day)

CC(=O)c1nn(CC(=O)N2C[C@H](F)C[C@H]2C(=O)Nc2cccc(Br)n2)c2ccc(-c3cnc(C)nc3)cc12 [Compound 1, (2S,4R)-1-(2-(3-Acetyl-5-(2-methylpyrimidin-5-yl)-1H-indazol-1-yl)acetyl)-N-(6-bromopyridin-2-yl)-4-fluoropyrrolidine-2-carboxamide]
MRT last [1]: 2.7 h | Tmax [1]: 1 h | Tmax (Dutch Belted, rabbit, Retina (OU), male DB rabbits, Group 3, Day 15, 15 mg/kg/dose BID oral (30 mg/kg/day)): 1 h | MRT last [2]: 2.67 h | Tmax [2]: 1 h | AUC(0-inf) (Dutch Belted, rabbit, plasma, male DB rabbits, Group 1, Day 1, 7.5 mg/kg single oral dose, read-out: AUC0-inf): 1590 ng·h/mL | Tmax (Dutch Belted, rabbit, plasma, male DB rabbits, Group 3, Day 15, 15 mg/kg/dose BID oral (30 mg/kg/day)): 1 h | AUC0-12 [3]: 2560 ng·h/g | AUC(0-24) [3]: 3460 ng·h/g | AUC(0-t) [3]: 3460 ng·h/g | Ctrough [3]: 119 ng/g | DN AUC0-12 [3]: 341 (h*ng/g)/(mg/kg/dose) | DN AUC0-24 [3]: 462 (h*ng/g)/(mg/kg/day) | DN Cmax [3]: 57.9 (ng/g)/(mg/kg/day) | AUC0-12 [4]: 7860 ng·h/g | AUC(0-24) [4]: 11900 ng·h/g | AUC(0-t) [4]: 11900 ng·h/g | Ctrough [4]: 484 ng/g | DN AUC0-12 [4]: 1050 (h*ng/g)/(mg/kg/dose) | DN AUC0-24 [4]: 1580 (h*ng/g)/(mg/kg/day) | DN Cmax [4]: 126 (ng/g)/(mg/kg/day) | AUC0-12 [5]: 13900 ng·h/g | AUC(0-24) [5]: 21300 ng·h/g | AUC(0-t) [5]: 21300 ng·h/g | Ctrough [5]: 780 ng/g | DN AUC0-12 [5]: 925 (h*ng/g)/(mg/kg/dose) | DN AUC0-24 [5]: 1420 (h*ng/g)/(mg/kg/day) | DN Cmax [5]: 136 (ng/g)/(mg/kg/day) | AUC0-12 [6]: 765 ng·h/g | AUC0-240 [6]: 864 ng·h/g | AUC(0-24) [6]: 864 ng·h/g | AUC(0-t) [6]: 765 ng·h/g | Ctrough [6]: 16.5 ng/g | DN AUC0-12 [6]: 102 (h*ng/g)/(mg/kg/dose) | DN AUC0-24 [6]: 115 (h*ng/g)/(mg/kg/day) | DN Cmax [6]: 25.1 (ng/g)/(mg/kg/day) | AUC0-12 [7]: 1710 ng·h/g | AUC0-240 [7]: 6070 ng·h/g | AUC(0-24) [7]: 2450 ng·h/g | AUC(0-t) [7]: 6070 ng·h/g | Ctrough [7]: 80.0 ng/g | DN AUC0-12 [7]: 227 (h*ng/g)/(mg/kg/dose) | DN AUC0-24 [7]: 327 (h*ng/g)/(mg/kg/day) | DN Cmax [7]: 40.8 (ng/g)/(mg/kg/day) | AUC0-12 [8]: 11500 ng·h/g | AUC0-240 [8]: 16100 ng·h/g | AUC(0-24) [8]: 6460 ng·h/g | AUC(0-t) [8]: 16100 ng·h/g | Ctrough [8]: 123 ng/g | DN AUC0-12 [8]: 325 (h*ng/g)/(mg/kg/dose) | DN AUC0-24 [8]: 430 (h*ng/g)/(mg/kg/day) | DN Cmax [8]: 85.7 (ng/g)/(mg/kg/day) | Cmax (male, Dutch Belted, rabbit, choroid-RPE (choroid-retinal pigment epithelium), po, […], Choroid-RPE (OU), male DB rabbits, Group 1, Day 1, […] single oral dose): 726 ng/g | Cmax [9]: 3970 ng/g | half-life [9]: 76.2 h | half-life (male, Dutch Belted, rabbit, choroid-retinal pigment epithelium (choroid-RPE), po, […], Choroid-RPE (OU), male DB rabbits, Group 1, Day 1, […] single oral dose): 58.9 h | Cmax (male, Dutch Belted, rabbit, choroid-retinal pigment epithelium (choroid-RPE), po, […], Choroid-RPE (OU), male DB rabbits, Group 2, Day 15, […] BID oral (15 mg/kg/day)): 2000 ng/g | Cmax (male, Dutch Belted, rabbit, iris-ciliary body (ICB), po, 15 mg/kg, ICB (OU), male DB rabbits, Group 3, Day 15, 15 mg/kg/dose BID oral (30 mg/kg/day)): 2050 ng/g | Cmax (male, Dutch Belted, rabbit, iris-ciliary body (ICB), po, […], ICB (OU), male DB rabbits, Group 1, Day 1, […] single oral dose): 435 ng/g | Cmax (male, Dutch Belted, rabbit, iris-ciliary body (ICB), po, […], ICB (OU), male DB rabbits, Group 2, Day 15, […] BID oral (15 mg/kg/day)): 943 ng/g | Cmax [10]: 910 ng/mL | half-life [10]: 4.98 h | AUC(0-t) (male, Dutch Belted, rabbit, plasma, po, 15 mg/kg, plasma, male DB rabbits, Group 3, Day 15, 15 mg/kg/dose BID oral (30 mg/kg/day), read-out: AUC0-12): 3620 ng·h/mL | AUC(0-t) (male, Dutch Belted, rabbit, plasma, po, 15 mg/kg, plasma, male DB rabbits, Group 3, Day 15, 15 mg/kg/dose BID oral (30 mg/kg/day), read-out: AUC0-24): 4010 ng·h/mL | AUC(0-t) (male, Dutch Belted, rabbit, plasma, po, 15 mg/kg, plasma, male DB rabbits, Group 3, Day 15, 15 mg/kg/dose BID oral (30 mg/kg/day), read-out: AUC0-240): 4390 ng·h/mL | AUC(0-t) (male, Dutch Belted, rabbit, plasma, po, 15 mg/kg, plasma, male DB rabbits, Group 3, Day 15, 15 mg/kg/dose BID oral (30 mg/kg/day), read-out: AUC0-t): 4010 ng·h/mL | Cmax [11]: 423 ng/mL | half-life [11]: 6.01 h | AUC(0-t) (male, Dutch Belted, rabbit, plasma, po, […], plasma, male DB rabbits, Group 1, Day 1, […] single oral dose, read-out: AUC0-12): 1450 ng·h/mL | AUC(0-t) (male, Dutch Belted, rabbit, plasma, po, […], plasma, male DB rabbits, Group 1, Day 1, […] single oral dose, read-out: AUC0-24): 1560 ng·h/mL | AUC(0-t) (male, Dutch Belted, rabbit, plasma, po, […], plasma, male DB rabbits, Group 1, Day 1, […] single oral dose, read-out: AUC0-240): 1680 ng·h/mL | AUC(0-t) (male, Dutch Belted, rabbit, plasma, po, […], plasma, male DB rabbits, Group 1, Day 1, […] single oral dose, read-out: AUC0-t): 1560 ng·h/mL | Cmax [12]: 440 ng/mL | half-life [12]: 4.88 h | AUC(0-t) (male, Dutch Belted, rabbit, plasma, po, […], plasma, male DB rabbits, Group 2, Day 15, […] BID oral (15 mg/kg/day), read-out: AUC0-12): 1910 ng·h/mL | AUC(0-t) (male, Dutch Belted, rabbit, plasma, po, […], plasma, male DB rabbits, Group 2, Day 15, […] BID oral (15 mg/kg/day), read-out: AUC0-24): 2130 ng·h/mL | AUC(0-t) (male, Dutch Belted, rabbit, plasma, po, […], plasma, male DB rabbits, Group 2, Day 15, […] BID oral (15 mg/kg/day), read-out: AUC0-240): 2370 ng·h/mL | AUC(0-t) (male, Dutch Belted, rabbit, plasma, po, […], plasma, male DB rabbits, Group 2, Day 15, […] BID oral (15 mg/kg/day), read-out: AUC0-t): 2130 ng·h/mL | concentration at 6 h (male, Dutch Belted, rabbit, retina, oral, […] BID, DB rabbits, Day 15, […] BID, read-out: Mean Retina Concentration): 97.9 ng/g | concentration at 24 h (male, Dutch Belted, rabbit, retina, oral, […] BID, DB rabbits, Day 15, […] BID, 24 hr, read-out: Mean Retina Concentration): 44.3 ng/g | concentration at 96 h (male, Dutch Belted, rabbit, retina, oral, […] BID, DB rabbits, Day 15, […] BID, 96 hr, read-out: Mean Retina Concentration): 13.9 ng/g | concentration at 168 h (male, Dutch Belted, rabbit, retina, oral, […] BID, DB rabbits, Day 15, […] BID, 168 hr, read-out: Mean Retina Concentration): 10.7 ng/g | concentration at 240 h (male, Dutch Belted, rabbit, retina, oral, […] BID, DB rabbits, Day 15, […] BID, 240 hr, read-out: Mean Retina Concentration): 7.18 ng/g | concentration at 6 h (male, Dutch Belted, rabbit, retina, oral, […], DB rabbits, Day 1, […] single dose, read-out: Mean Retina Concentration): 27.5 ng/g | concentration at 12 h (male, Dutch Belted, rabbit, retina, oral, […], DB rabbits, Day 1, […] single dose, 12 hr, read-out: Mean Retina Concentration): 16.5 ng/g | Cmax (male, Dutch Belted, rabbit, retina, po, 15 mg/kg, Retina (OU), male DB rabbits, Group 3, Day 15, 15 mg/kg/dose BID oral (30 mg/kg/day)): 1290 ng/g | Cmax (male, Dutch Belted, rabbit, retina, po, […], Retina (OU), male DB rabbits, Group 1, Day 1, […] single oral dose): 188 ng/g | Cmax (male, Dutch Belted, rabbit, retina, po, […], Retina (OU), male DB rabbits, Group 2, Day 15, […] BID oral (15 mg/kg/day)): 306 ng/g | Ctrough [13]: 14.8 ng/mL | DN AUC0-12 [13]: 194 (h*ng/mL)/(mg/kg/dose) | DN AUC0-24 [13]: 208 (h*ng/mL)/(mg/kg/day) | DN Cmax [13]: 56.4 (ng/mL)/(mg/kg/day) | Ctrough [14]: 29.6 ng/mL | DN AUC0-12 [14]: 255 (h*ng/mL)/(mg/kg/dose) | DN AUC0-24 [14]: 284 (h*ng/mL)/(mg/kg/day) | DN Cmax [14]: 58.6 (ng/mL)/(mg/kg/day) | Ctrough [15]: 54.3 ng/mL | DN AUC0-12 [15]: 242 (h*ng/mL)/(mg/kg/dose) | DN AUC0-24 [15]: 267 (h*ng/mL)/(mg/kg/day) | DN Cmax [15]: 60.7 (ng/mL)/(mg/kg/day) | Tolerability, clinical observations (rabbits, single oral […] and BID ≥15 mg/kg/day): well tolerated

From patent US20230126447A1, “OCULAR DRUG DEPOT FOR COMPLEMENT-MEDIATED DISORDERS” (priority 2020, published 2023)
